≈ marks a conversion by molar mass, not a printed value. Where two headings read alike, the source gives them in different places.
How the values were obtained:
[1] = tested on: Candida duobushaemulonii AR Bank #391; assay: MIC determination by in vitro antifungal assay; assay type: cell-based
Experimental: (§1) The antifungal agent amphotericin B (AmB) was purchased from VWR (Radnor PA, USA). AmB was dissolved in DMSO at a final concentration of 5 mg/mL and was stored at −20° C., protected from light. Candida albicans American Type Culture Collection (ATCC) 10231 (strain A), C. albicans ATCC 64124 (B), and C. albicans ATCC MYA-2876 (C) were obtained from Utah State University. C. albicans ATCC 90819 (D), C. albicans ATCC MYA-2310 (E), C. albicans ATCC MYA-1237 (F), C. albicans ATCC MYA-1003 (G), Candida glabrata ATCC 2001 (H), Candida krusei ATCC 6258 (I), Candida parapsilosis ATCC 22019 (J), Cryptococcus neoformans ATCC MYA-895 (M), Aspergillus terreus ATCC MYA-3633 (N), and Aspergillus flavus ATCC MYA-3631 (0) were obtained from the American Type Culture Collection (ATCC; Manassas, VA, USA). Aspergillus nidulans ATCC 38163 (P) was obtained from University of Kentucky. Clinically derived Aspergillus fumigatus NRRL 163 (Q), A. fumigatus NRRL 5109 (R), and A. fumigatus NRRL 6113 (S) were obtained from Northern Regional Research Laboratory (NRRL). Candida auris 384 (K), C. auris 390 (L), and fungal strains 381-400 (including 10 C. auris (AR Bank #381-390), 3 Candida duobushaemulonii (AR Bank #391, AR Bank #392, and AR Bank #394), 2 Candida haemulonii (AR Bank #393 and AR Bank #395), 1 Kodameae ohmeri (AR Bank #396), 1 C. krusei (AR Bank #397), 1 Candida lusitaniae (AR Bank #398), and 2 Saccharomyces cerevisiae strains (AR Bank #399 and AR Bank #400)) were part of a larger fungal library from the AR Bank maintained by the Centers for Disease Control and Prevention (CDC; Atlanta, GA, USA). Filamentous fungi and yeasts were cultivated at 35° C. in RPMI 1640 medium (with L-glutamine, without sodium bicarbonate, Sigma-Aldrich, St. Louis, MO) buffered to a pH of 7.0 with 0.165 M morpholinepropanesulfonic acid (MOPS) buffer (Sigma-Aldrich). For cytotoxicity assays, HepG2 and the mouse macrophage cell line J774A.1 were obtained from University of Kentucky. The human embryonic kidney cell line, HEK-293, was bought from the ATCC. Mammalian cells were grown in Dulbecco's Modified Eagle's Medium (DMEM) (from VWR) with 10% fetal bovine serum (FBS) (from VWR) and 1% Pen/Strep (from ATCC). Cell lines were cultured at 37° C. with 5% CO2 and passaged by trypsinization with 0.05% trypsin: 0.53 mM EDTA (from Sigma-Aldrich).
(§2) From the actively growing yeast culture, 100 µL were then transferred to 900 μL of RPMI 1640 medium and re-adjusted to achieve OD600 of 0.12 (˜1×10^6 CFU/mL). The cell suspension was further diluted to achieve 1:100 in RPMI 1640 medium.

[2] = tested on: Candida duobushaemulonii AR Bank #392; assay: MIC determination by in vitro antifungal assay; assay type: cell-based
Experimental: as §1, §2

[3] = tested on: Candida duobushaemulonii AR Bank #394; assay: MIC determination by in vitro antifungal assay; assay type: cell-based
Experimental: as §1, §2

[4] = tested on: Candida haemulonii AR Bank #393; assay: MIC determination by in vitro antifungal assay; assay type: cell-based
Experimental: as §1, §2

[5] = tested on: Candida haemulonii AR Bank #395; assay: MIC determination by in vitro antifungal assay; assay type: cell-based
Experimental: as §1, §2

[6] = tested on: Candida krusei AR Bank #397; assay: MIC determination by in vitro antifungal assay; assay type: cell-based; details: Candida strain AR Bank #397
Experimental: as §1, §2

[7] = tested on: Candida lusitaniae AR Bank #398; assay: MIC determination by in vitro antifungal assay; assay type: cell-based; details: Candida strain AR Bank #398
Experimental: as §1, §2

[8] = tested on: Kodameae ohmeri AR Bank #396; assay: MIC determination by in vitro antifungal assay; assay type: cell-based; details: strain AR Bank #396
Experimental: as §1, §2

[9] = tested on: Saccharomyces cerevisiae AR Bank #399; assay: MIC determination by in vitro antifungal assay; assay type: cell-based
Experimental: as §1, §2

[10] = tested on: panel of ten C. auris strains (AR Bank #381-390); assay: MIC determination, summary over the C. auris panel; assay type: cell-based, Candida auris; details: Candidozyma auris
Experimental: as §1, §2

[11] = tested on: ten other fungal strains (AR Bank #391-400); assay: MIC determination, summary over ten additional fungal strains; assay type: cell-based; details: read-out: MIC range
Experimental: as §1, §2

[12] = tested on: C. albicans ATCC 10231 (strain A) biofilm formation; assay: Prevention of biofilm formation assay; assay type: cell-based, Candida albicans
Experimental: Biofilm prevention assays were set up identically to the ordinary MIC experiment, where compounds were diluted, and the fungi added. After overnight growth, the plates were washed as in the biofilm disruption assay and stained and measured in the same fashion.
A large amount of fungal cells were exposed to the monohydrazides at time 0 h to evaluate the effect of these compounds in the prevention of Candida biofilm formation (FIG. 5B). […] Although some of these monohydrazides were able to prevent biofilm formation, none of these compounds had any effect in terms of the disruption of already pre-formed biofilms (FIG. 5A).

[13] = Candidozyma duobushaemuli, read-out: MIC
[14] = Candidozyma haemuli, read-out: MIC
[15] = Pichia kudriavzevii, read-out: MIC
[16] = Clavispora lusitaniae, read-out: MIC
[17] = against all ten C. auris strains tested (AR Bank #381-390)
[18] = all C. auris strains tested with the exception of AR Bank #390

Row | Compound | MIC [1] [μg/mL^−1] | MIC [2] [μg/mL^−1] | MIC [3] [μg/mL^−1] | MIC [4] [μg/mL^−1] | MIC [5] [μg/mL^−1] | MIC [6] [μg/mL^−1] | MIC [7] [μg/mL^−1] | MIC [8] [μg/mL^−1] | MIC [9] [μg/mL^−1] | MIC [2, 13] [µg/mL] | MIC [3, 13] [µg/mL] | MIC [4, 14] [µg/mL] | MIC [5, 14] [µg/mL] | MIC [6, 15] [µg/mL] | MIC [7, 16] [µg/mL] | MIC ([8]; read-out: MIC) [µg/mL] | MIC ([9]; read-out: MIC) [µg/mL] | MIC [10, 17] [µg/mL] | MIC [11] [µg/mL] | other results
1 | O=C(NNc1ccc(Cl)cc1)c1ccccn1 [Compound 2e] | 0.98 | 0.98 | 0.49 | 0.49 | 0.12 | 0.24 | 0.98 | 0.24 | 0.98 |  |  |  |  |  |  |  |  |  |  | 
2 | O=C(NNc1cccc(Cl)c1)c1ccccn1 [Compound 2b] | 0.24 | 0.24 | 0.12 | 0.12 | ≤0.06 | 0.12 | 0.98 | 0.12 | 0.98 |  |  |  |  |  |  |  |  |  |  | 
3 | COc1cccc(NNC(=O)c2cnccn2)c1 [Compound 9c] |  |  |  |  |  |  |  |  |  | 0.98 (≈ 4.01 µM) | 1.95 (≈ 7.98 µM) | 0.49 (≈ 2.01 µM) | 0.49 (≈ 2.01 µM) | 0.49 (≈ 2.01 µM) | 1.95 (≈ 7.98 µM) | 0.49 (≈ 2.01 µM) | 7.8 (≈ 31.9 µM) | 0.12 to 7.8 (≈ 0.491 to 31.9 µM) | 0.06 to 7.8 (≈ 0.246 to 31.9 µM) | 
4 | O=C(NNc1cccc(F)c1)c1ccccn1 [Compound 2a] | 0.49 | 0.24 | 0.49 | 0.12 | ≤0.06 | 0.24 | 0.98 | 0.24 | 1.95 |  |  |  |  |  |  |  |  |  |  | concentration active in prevention of biofilm formation [12]: 7.8 j·tg mL^−1
5 | COc1ccc(NNC(=O)c2ncc(F)cc2F)cc1 [Compound 7f] |  |  |  |  |  |  |  |  |  |  |  |  |  |  |  |  |  |  |  | MIC [10, 18]: 0.49 to 1.95 µg/mL (≈ 1.75 to 6.98 µM)
6 | C[C@@H]1[C@H](O)[C@@H](C)/C=C/C=C/C=C/C=C/C=C/C=C/C=C/[C@H](O[C@@H]2O[C@H](C)[C@@H](O)[C@H](N)[C@@H]2O)C[C@@H]2O[C@](O)(C[C@@H](O)C[C@@H](O)[C@H](O)CC[C@@H](O)C[C@@H](O)CC(=O)O[C@H]1C)C[C@H](O)[C@H]2C(=O)O [AmB, amphotericin B, reference compound] | 7.8 | 7.8 | 0.98 | 13.6 | 3.9 | 0.49 | 3.9 | 1.95 | 15.6 |  |  |  |  |  |  |  |  |  |  | 
7 | COc1ccc(NNC(=O)c2nc(F)ccc2F)cc1 [Compound 8f] |  |  |  |  |  |  |  |  |  |  |  |  |  |  |  |  |  |  |  | MIC [10, 18]: 0.49 to 1.95 µg/mL (≈ 1.75 to 6.98 µM)
8 | O=C(NNc1ccc(F)cc1F)c1cccc(F)n1 [Compound 5g] |  |  |  |  |  |  |  |  |  |  |  |  |  |  |  |  |  | 0.12 to 7.8 (≈ 0.449 to 29.2 µM) |  | 
9 | COc1ccc(NNC(=O)c2ccccn2)cc1 [Compound 2f] |  |  |  |  |  |  |  |  |  | 0.98 (≈ 4.03 µM) | 0.98 (≈ 4.03 µM) | 0.49 (≈ 2.01 µM) | 0.49 (≈ 2.01 µM) | 0.49 (≈ 2.01 µM) | 0.98 (≈ 4.03 µM) | 0.49 (≈ 2.01 µM) | 1.95 (≈ 8.02 µM) | 0.12 to 7.8 (≈ 0.493 to 32.1 µM) | 0.06 to 1.95 (≈ 0.247 to 8.02 µM) | MIC [1, 13]: 0.98 µg/mL (≈ 4.03 µM); concentration active in prevention of biofilm formation [12]: 7.8 j·tg mL^−1
10 | O=C(NNc1cc(F)cc(F)c1)c1ccccn1 [Compound 2i] |  |  |  |  |  |  |  |  |  | 0.49 (≈ 1.97 µM) | 0.24 (≈ 0.963 µM) | 0.49 (≈ 1.97 µM) | 0.24 (≈ 0.963 µM) | 0.12 (≈ 0.482 µM) | 0.49 (≈ 1.97 µM) | 0.12 (≈ 0.482 µM) | 1.95 (≈ 7.82 µM) | 0.06 to 1.95 (≈ 0.241 to 7.82 µM) | 0.06 to 1.95 (≈ 0.241 to 7.82 µM) | MIC [1, 13]: 0.24 µg/mL (≈ 0.963 µM); prevention of biofilm formation [12]: not capable of preventing
11 | O=C(NNc1ccc(F)cc1F)c1cnccn1 [Compound 9g] |  |  |  |  |  |  |  |  |  | 0.24 (≈ 0.959 µM) | 7.8 (≈ 31.2 µM) | 0.24 (≈ 0.959 µM) | 1.95 (≈ 7.79 µM) | 1.95 (≈ 7.79 µM) | 3.9 (≈ 15.6 µM) | 0.98 (≈ 3.92 µM) | 7.8 (≈ 31.2 µM) | 0.12 to 7.8 (≈ 0.48 to 31.2 µM) | 0.06 to 7.8 (≈ 0.24 to 31.2 µM) | MIC [1, 13]: 0.49 µg/mL (≈ 1.96 µM)
12 | COc1cccc(NNC(=O)c2ccccn2)c1 [Compound 2c] | 1.95 | 1.95 | 0.98 | 0.49 | 0.49 | 0.49 | 1.95 | 0.49 | 7.8 |  |  |  |  |  |  |  |  |  |  | concentration active in prevention of biofilm formation [12]: 1.96 j·tg mL^−1

— US20240425464A1, “Substituted Monohydrazides as Potent Antifungal Agents” (University of Kentucky Research Foundation, priority 2023, published 2024)
